“Also recorded” adds a separate entry of the source. d = 2'-deoxy (DNA); m = 2'-O-methyl
Tests used:
DIO mice [1] = assay: Intraperitoneal glucose tolerance test (IPGTT) in DIO mice; assay type: in vivo, mouse; conditions: four weeks treatment, vs NC ASO
Protocol: Glucose tolerance tests (GTT) are performed after 6 h of fasting. Initial fasting blood glucose levels are determined, followed by intraperitoneal (ip) injection of 20% dextrose solution at a dose of 2.0 g/kg body weight (2 g/kg body weight). Blood glucose levels are measured from the tail vein at 15, 30, 60, 90, 120, 150, and 180 minutes after the glucose injection using a commercially available glucose monitor, e.g., an Accu-chek® Advantage glucometer (Roche Diagnostics®, Indianapolis, Ind.). The area under the curve (AUC) during the GTT is calculated using a commercially available software program, e.g., GraphPad Prism software. GTT experiments for different groups are run in parallel. At each time point of the tail vein glucose measurements, ˜40 μL of tail vein blood is collected and plasma is prepared for subsequent insulin level assays using ELISA/RIA for time points at 0, 15, and 30 min after glucose injections.
HSP90AB1 antisense oligonucleotides (ASO) specific to HSP90AB1 were administered to DIO mice. […]
The mice were divided into four groups: (1) lean (non-diabetic control); (2) diabetic receiving control ASO (NC-ASO); (3) diabetic receiving ASO5; and (4) diabetic receiving ASO6. […] Skeletal muscles were subjected to quantitative PCR.
At the end of the treatment period glucose tolerance was measured. […]

DIO mice [2] = assay: Fed / plasma glucose level in DIO mice; assay type: in vivo, mouse
Protocol: (§1) The mice were divided into four groups: (1) lean (non-diabetic control); (2) diabetic receiving control ASO (NC-ASO); (3) diabetic receiving ASO5; and (4) diabetic receiving ASO6. In various experiments mice were dosed intra-peritoneally with twice per week injection of ASO at […] body weight for 4 or 8 weeks. Skeletal muscles were subjected to quantitative PCR.
Additional experiments were performed to determine the effect of the reduction of Hsp90ab1 protein level on the level of glucose in plasma. […] Thus, treatment with an Hsp90ab1 selective ASO is effective for improving glucose utilization in DIO mice.

human Hsp90AB1 mRNA = assay: Knockdown of Hsp90AB1 mRNA in HSMM myotubes; assay type: cell-based; conditions: normalized to cyclophilin, vs NC1ASO
Description: The level of human Hsp90AB1 at the mRNA level was similarly observed to be reduced in HSMM myotubes treated with the exemplary mouse antisense oligonucleotide ASO6 (FIG. 20). ASO6 (and ASOs 1-5 and 7-9) is derived from the mouse HSP90AB1 gene. The oligonucleotide NC1ASO was again used as a negative control. The level of HSP90 mRNA was normalized to a control (cyclophilin) mRNA. The human and the mouse Hsp90aB1 gene share 96% homology.

DIO mice [3] = assay: Insulin level in DIO mice; assay type: in vivo, mouse
Protocol: as §1
Further, the effect of the reduction of Hsp90ab1 protein level on plasma insulin levels was examined.

human Hsp90AB1 protein = assay: Knockdown of Hsp90AB1 protein in HSMM by Western blotting; assay type: cell-based; conditions: Western blot, normalized to actin, vs NC1
Protocol: ASO1-ASO6 were tested for their ability to knock down human Hsp90AB1 levels in HSMM myotubes. The effectiveness of oligonucleotides ASO1 (A1), ASO2 (A2) ASO3 (A3) ASO4 (A4) ASO5 (A5) and ASO6 (A6) in knocking down the expression of HSP90AB1 protein is shown by Western blotting in FIGS. 19A and 19B. The oligonucleotide NC1 was used as a negative control. HSP90Ab1 protein levels were normalized to the levels of actin.
The ASO oligonucleotides ASO5, ASO13 and ASO18 were tested for their ability to reduce expression of human Hsp90AB1 protein in human skeletal muscle myotubes (HSMM) and C2C12 mouse myoblasts by Western blotting. ASO5 was derived from the mouse HSP90ab1 gene, while ASO13 and ASO18 were directed to the human HSP90ab1 gene. The oligonucleotide NC1 was used as a negative control. HSP90AB1protein levels were normalized to the levels of actin.

Hsp90ab1 mRNA = Hsp90ab1 mRNA in gastrocnemius muscles of DIO mice (quantitative PCR); assay type: in vivo, mouse; conditions: ASO intra-peritoneally twice per week
Protocol: as §1

muscle of DIO mice = assay: Lipidomic analysis of muscle of DIO mice; assay type: in vivo, mouse
Description: As noted in the above examples, Hsp90ab1 was identified as a critical node in Bayesian metabolic disease network derived by the interrogation of the biology underlying diabetes in a data driven manner. This was achieved by using a proprietary platform integrating pan-omic data, mitochondrial-centric metabolic fingerprint and phenotypic assays capturing metabolic dysregulation reminiscent of obesity/diabetes sequale. Hsp90ab1 is an ATPase targeting multiple clients including vital components of insulin signaling and mitochondrial membrane proteins. However the role of Hsp90ab1 in metabolism remains unknown. […] This was accompanied by decreased muscle PDH E1a phosphorylation, reflecting an increased insulin sensitivity and carbohydrate substrate metabolism. We also observed significant alteration in the lipidomic profile in these DIO mice treated with ASO6. For example ASO6-mediated knockdown of Hsp90ab1 in DIO mice increased 18:2 enriched species of cardiolipin in muscle. […] Taken together, our data provides novel evidence that Hsp90ab1 isoform is a key regulator of skeletal muscle cell metabolism and systemic metabolism, and represents a target for treatment of diabetes.

[4] = tested on: skeletal muscles of DIO mice; assay: Skeletal muscle gene expression and PDH-E1α phosphorylation in DIO mice; assay type: in vivo, mouse
Description: PDK4 is known to phosphorylate pyruvate dehydrogenase (PDH)-E1α subunit, thereby inhibiting PDH and downregulating mitochondrial glucose oxidation. […] This decrease in phosphorylation is indicative of an increase in active PDH-E1α and a resultant increase in mitochondrial glucose oxidation. Thus, ASO mediated Hsp90ab1 knock-down is effective for enhancing substrate metabolism through suppression of PDK4 expression.
These genes are PFKM (phosphofructokinase, muscle), ALDOA (aldolase A), GYS1 (glycogen synthase 1) ACCA (Acetyl-CoA carboxylase), HSL (Hormone sensitive lipase), SCD1 (Stearoyl-CoA desaturase), ACADL (Acyl-CoA Dehydrogenase), and CPT1b (Carnitine palmitoyltransferase I). Gene expression was examined in the skeletal muscles of the mice.

## mU*mC*mC*mU*mC*mC*T*C*T*T*T*C*T*C*A*C*C*T*mU*mU*mC*mU*mC*mU (antisense UCCUCCTCTTTCTCACCTUUCUCU; sugars from the 5' end m6 d12 m6, all phosphorothioate, methylation of C not given here) [ASO6, modified antisense oligonucleotide derived from the mouse HSP90AB1 gene]
DIO mice [1]
  glucose tolerance (IPGTT): significant improvement; also recorded: significantly improved
DIO mice [2]; DIO mice, eight weeks treatment
  fed glucose level: significant improvement
DIO mice [2]; HFD fed C57B/6 mice, 4 weeks treatment
  fed glucose levels: suppressed
Human Hsp90AB1 mRNA
  level of human Hsp90AB1 mRNA: knockdown; also recorded: reduced
DIO mice [3]
  fed insulin levels: significant reduction
Human Hsp90AB1 protein
  level of HSP90ab1 protein: effective; also recorded: most effective
Hsp90ab1 mRNA
  Hsp90ab1 mRNA level in the gastrocnemius muscles: effective; also recorded: reduce
Muscle of DIO mice
  18:0 and 18:0-OH acylcarnitines in muscle: selectively decreased
  18:2 enriched species of cardiolipin in muscle: increased
  steric, oleic, and linoleic free fatty acids (FFA) in muscle: decreased
[4]; DIO mice (fed HFD), 4 weeks, vs NC
  PDK4 expression (mRNA) in skeletal muscle: significant decrease
[4]; DIO mice, Western blot
  phosphorylation of PDH-E1α (S232, S293, S300) in skeletal muscle: decreased
[4]; DIO mice, four weeks
  skeletal muscle mRNA level of Adipose triglyceride lipase (ATGL): sharp increase
[4]; DIO mice, four weeks, skeletal muscles
  expression of key genes that regulate glycolysis and lipid oxidation (PFKM, ALDOA, GYS1, ACCA, HSL, SCD1, ACADL, CPT1b): influences the expression

Source: patent publication US10023864B2, “Methods of treating a metabolic syndrome by modulating heat shock protein (HSP) 90-beta” (Berg LLC, priority 2014, dated 2018)
